Like-named read-outs stand apart in the source and are kept apart here.
Assays:
[1] = Stability in liver microsomes; format: in vitro ADME; conditions: mouse liver microsomes, 1 μM, NADPH
Procedure: Stability in liver microsomes. Male CD-1 mouse liver microsomes (Lot#1710069) were purchased from XenoTech. The reaction mixture, minus NADPH, was prepared as described below. Compound 14 was added into the reaction mixture at a final concentration of 1 μM. The control compound, testosterone, was run simultaneously with Compound 14 in a separate reaction. An aliquot of the reaction mixture (without cofactor) was equilibrated in a shaking water bath at 37° C. for 3 minutes. The reaction was initiated by the addition of the cofactor, and the mixture was incubated in a shaking water bath at 37° C. Aliquots (100 μL) were withdrawn at 0, 10, 20, 30, and 60 minutes. Compound 14 and testosterone samples were immediately combined with 400 μL of ice-cold 50/50 acetonitrile (ACN)/H2O containing 0.1% formic acid and internal standard to terminate the reaction. The samples were then mixed and centrifuged to precipitate proteins. All samples were assayed by LC-MS/MS using electrospray ionization. […] are compared to the PARR at time 0 to determine the percent remaining at each time point. Half-lives and intrinsic clearance were calculated using GraphPad software, fitting to a single-phase exponential decay equation.
In vitro metabolic stability. Compound 14 was evaluated for metabolic stability in mouse liver microsomes by Absorption Systems (Exton, Pa.), by determining the percent remaining at 0, 10, 20, 30 and 60 minutes when incubated with mouse liver microsomes in the presence of NADPH. The half-life (t1/2) and in vitro intrinsic clearance (CLint) of Compound 14 was calculated, in addition to the control (testosterone).

TRPM8 = TRPM8 (Homo sapiens, UniProt Q7Z2W7); test: TRPM8 antagonist activity by Fura-2 Ca2+ imaging in HEK-293 cells stably expressing human TRPM8; format: cell-based; conditions: for IC50: read-out: Functional Activity hTRPM8 potency IC50 ± SEM
Sequence of TRPM8 (Q7Z2W7 whole entry): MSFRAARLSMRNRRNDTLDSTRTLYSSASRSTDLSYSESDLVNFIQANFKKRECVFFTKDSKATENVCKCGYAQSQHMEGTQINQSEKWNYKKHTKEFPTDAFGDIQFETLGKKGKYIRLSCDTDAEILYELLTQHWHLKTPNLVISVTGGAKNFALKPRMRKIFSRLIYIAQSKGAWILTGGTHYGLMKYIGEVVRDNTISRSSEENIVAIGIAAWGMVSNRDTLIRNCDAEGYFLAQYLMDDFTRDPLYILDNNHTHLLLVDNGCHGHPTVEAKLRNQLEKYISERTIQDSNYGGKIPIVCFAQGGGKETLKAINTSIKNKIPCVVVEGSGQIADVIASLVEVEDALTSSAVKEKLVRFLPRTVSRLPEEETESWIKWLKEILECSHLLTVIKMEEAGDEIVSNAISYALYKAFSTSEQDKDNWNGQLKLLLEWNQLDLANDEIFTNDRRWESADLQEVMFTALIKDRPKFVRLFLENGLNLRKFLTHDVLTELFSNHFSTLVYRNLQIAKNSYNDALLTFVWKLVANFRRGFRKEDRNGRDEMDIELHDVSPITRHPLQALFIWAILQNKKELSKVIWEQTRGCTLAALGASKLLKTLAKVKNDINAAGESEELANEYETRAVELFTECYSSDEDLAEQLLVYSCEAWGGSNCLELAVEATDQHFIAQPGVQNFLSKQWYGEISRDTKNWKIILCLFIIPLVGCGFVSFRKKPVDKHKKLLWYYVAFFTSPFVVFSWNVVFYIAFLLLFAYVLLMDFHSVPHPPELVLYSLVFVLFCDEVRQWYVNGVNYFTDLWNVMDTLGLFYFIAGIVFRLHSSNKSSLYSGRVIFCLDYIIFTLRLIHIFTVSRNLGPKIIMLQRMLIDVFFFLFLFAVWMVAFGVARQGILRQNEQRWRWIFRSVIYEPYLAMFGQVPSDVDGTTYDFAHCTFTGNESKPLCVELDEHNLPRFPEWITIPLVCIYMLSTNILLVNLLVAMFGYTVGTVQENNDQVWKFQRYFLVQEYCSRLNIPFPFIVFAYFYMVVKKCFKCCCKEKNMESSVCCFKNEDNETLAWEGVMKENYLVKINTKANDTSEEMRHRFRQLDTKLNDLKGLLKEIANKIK

human TRPA1 = human TRPA1 (Homo sapiens, UniProt O75762); test: TRPA1 agonist and antagonist Ca2+ flux assay (FLIPR, Fluo-8) in HEK293 cells stably expressing human TRPA1; format: cell-based; conditions: for hTRPA1 % Activation (n = 3-5): normalized to Emax of AITC (300 μM)
Sequence of human TRPA1 (O75762 whole entry): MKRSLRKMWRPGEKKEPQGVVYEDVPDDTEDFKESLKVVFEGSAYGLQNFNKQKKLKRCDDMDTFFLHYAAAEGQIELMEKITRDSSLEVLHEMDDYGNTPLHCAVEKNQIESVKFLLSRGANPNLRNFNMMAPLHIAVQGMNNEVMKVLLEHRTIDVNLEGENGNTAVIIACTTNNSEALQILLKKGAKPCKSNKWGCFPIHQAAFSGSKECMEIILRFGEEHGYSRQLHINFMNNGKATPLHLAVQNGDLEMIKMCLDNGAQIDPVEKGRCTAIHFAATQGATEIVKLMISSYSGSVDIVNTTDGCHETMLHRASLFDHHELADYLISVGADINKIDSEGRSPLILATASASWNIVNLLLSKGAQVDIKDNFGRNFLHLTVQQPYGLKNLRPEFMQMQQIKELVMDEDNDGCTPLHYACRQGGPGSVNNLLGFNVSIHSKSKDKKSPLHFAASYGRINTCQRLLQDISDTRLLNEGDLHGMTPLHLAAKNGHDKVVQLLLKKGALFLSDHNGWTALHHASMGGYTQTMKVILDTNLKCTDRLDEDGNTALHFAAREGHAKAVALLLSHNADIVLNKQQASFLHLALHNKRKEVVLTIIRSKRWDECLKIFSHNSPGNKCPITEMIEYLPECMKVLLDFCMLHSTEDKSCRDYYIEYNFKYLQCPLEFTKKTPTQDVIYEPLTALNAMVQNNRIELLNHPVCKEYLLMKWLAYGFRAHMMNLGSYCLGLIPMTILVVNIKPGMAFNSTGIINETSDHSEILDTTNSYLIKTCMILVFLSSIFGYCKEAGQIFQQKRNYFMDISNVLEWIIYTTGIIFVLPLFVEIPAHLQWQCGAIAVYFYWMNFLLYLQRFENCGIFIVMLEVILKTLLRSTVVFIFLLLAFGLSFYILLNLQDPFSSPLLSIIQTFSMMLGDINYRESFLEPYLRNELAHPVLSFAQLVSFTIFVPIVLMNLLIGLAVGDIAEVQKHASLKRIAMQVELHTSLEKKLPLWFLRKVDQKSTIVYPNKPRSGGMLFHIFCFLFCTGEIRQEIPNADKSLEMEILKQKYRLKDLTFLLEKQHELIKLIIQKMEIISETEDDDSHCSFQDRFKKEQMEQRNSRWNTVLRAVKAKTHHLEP

[2] = system: Oxaliplatin (OXP)-induced cold allodynia in male C57-mice; test: Oxaliplatin (OXP)-induced cold allodynia, acetone test; format: in vivo, mouse
Procedure: In Vivo Assays. C57-mice (≈30g) (Harlam, Holland) were used for the study. All experiments were approved by the Institutional Animal and Ethical Committee of the Universidad Miguel Hernandez where experiments were conducted and they were in accordance with the guidelines of the Economic European Community and the Committee for Research and Ethical Issues of the International Association for the Study of Pain. All parts of the study concerning animal care were performed under the control of veterinarians.
Cold allodynia. Oxaliplatin (Tocris) was dissolved in water with gentle warming and was […] injected on days 1, 3 and 5 at a 6 mg/kg dose. The day 7 after administration, experiments were performed. Together with Oxaliplatin injection, saline and a 5% Mannitol solution were intraperitoneally injected to prevent kidney damage and dehydration. The Compound 14 stock was prepared in DMSO (Sigma-Aldrich) and diluted in saline for injections. Compounds at different doses (0.1 to 1 μg) was injected into the plantar surface (25 μL) of the right hind paw of mice. Cold chemical thermal sensitivity was assessed using acetone drop method. Mice were placed in a metal mesh cage and allowed to habituate for approximately 30 minutes in order to acclimatize them. Freshly dispensed acetone drop (10 μL) was applied gently on to the mid plantar surface of the hind paw. Cold chemical sensitive reaction with respect to paw licking was recorded as a positive response (nociceptive pain response). The responses were measured for 20-s with a digital stopwatch. For each measurement, the paw was sampled twice and the mean was calculated. The interval between each application of acetone was approximately 5 minutes.
Cold Allodynia. […] Both acute and chronic OXP-induced cold hypersensitivity have been reproduced in rats and correlated with TRPM8 expression and function. Mizoguchi et al. reported that, in a rodent model, acute cold allodynia after OXP injection was alleviated by the TRPM8 blockers N-(2-aminoethyl)-N-[4-(benzyloxy)-3-methoxybenzyl]-N′-(1S)-1-(phenyl) ethyl] urea and TC-I 2014. According to these findings, the effect of Compound 14 was investigated in an OXP-induced cold allodynia model, using acetone for cooling stimulation. Considering that the cold pain threshold is increased from ≈12° C. to ≈26° C. in OXP-treated patients, acetone stimulation is considered to evoke pain in OXP-treated mice.
The activity of Compound 14 was evaluated 7 days after three intraperitoneal injections of OXP (6 mg/kg) in C57/BL6 mice, when cold allodynia had developed.

[3] = system: icilin-induced wet-dog shakes (WDS) in ICR (CD1) mice; test: Wet-dog shakes (WDS) assay, icilin-induced; format: in vivo, mouse
human TRPV1 = human TRPV1 (Homo sapiens, UniProt Q8NER1); test: TRPV1 agonist and antagonist Ca2+ flux assay (FLIPR, Fluo-8) in HEK293 cells stably expressing human TRPV1; format: cell-based; conditions: for hTRPV1 % Activation (n = 3): normalized to Emax of capsaicin (3 μM)
Sequence of human TRPV1 (Q8NER1 whole entry): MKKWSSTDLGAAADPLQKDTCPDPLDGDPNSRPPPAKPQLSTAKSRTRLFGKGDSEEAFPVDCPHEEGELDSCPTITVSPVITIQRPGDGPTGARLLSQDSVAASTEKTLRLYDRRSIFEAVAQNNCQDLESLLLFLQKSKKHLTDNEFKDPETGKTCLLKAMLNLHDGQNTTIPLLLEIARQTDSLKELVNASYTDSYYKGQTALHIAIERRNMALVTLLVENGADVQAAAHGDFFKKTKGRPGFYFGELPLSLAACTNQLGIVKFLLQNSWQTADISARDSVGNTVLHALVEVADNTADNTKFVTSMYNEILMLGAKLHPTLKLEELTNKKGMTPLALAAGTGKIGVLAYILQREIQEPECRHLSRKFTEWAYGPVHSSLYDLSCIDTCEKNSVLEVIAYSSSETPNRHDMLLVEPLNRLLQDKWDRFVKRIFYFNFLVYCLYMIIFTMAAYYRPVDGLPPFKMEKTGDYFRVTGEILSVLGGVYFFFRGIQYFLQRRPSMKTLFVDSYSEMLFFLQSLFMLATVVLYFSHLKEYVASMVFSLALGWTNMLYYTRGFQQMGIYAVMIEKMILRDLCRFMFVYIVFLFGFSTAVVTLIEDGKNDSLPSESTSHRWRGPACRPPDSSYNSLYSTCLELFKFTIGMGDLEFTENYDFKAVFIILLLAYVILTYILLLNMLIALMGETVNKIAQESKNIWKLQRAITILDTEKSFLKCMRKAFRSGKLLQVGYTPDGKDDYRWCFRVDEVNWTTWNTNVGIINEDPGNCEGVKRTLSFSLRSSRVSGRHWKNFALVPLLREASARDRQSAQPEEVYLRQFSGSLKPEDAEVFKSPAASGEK

[4] = HEK293, read-out: hTRPA1 % Inhibition (n = 3)
[5] = at concentrations 13- to 25-fold higher than hTRPM8 IC50
[6] = 0.1 and 1 μg single administration, day 7 after OXP
[7] = HEK293, read-out: hTRPV1 % Inhibition (n = 3)

O=C(NC1CCC2(CCCC2)CC1)c1ccc(-c2ccccc2)cc1 [Compound 14, N-(spiro[4.5]decan-8-yl)-[1,1′-biphenyl]-4-carboxamide]
% Remaining of Initial (n = 1), 0 min ([1]; 0 min): 100%
% Remaining of Initial (n = 1), 10 min ([1]; 10 min): 78%
% Remaining of Initial (n = 1), 20 min ([1]; 20 min): 57%
% Remaining of Initial (n = 1), 30 min ([1]; 30 min): 47%
% Remaining of Initial (n = 1), 60 min ([1]; 60 min): 31%
effect on menthol-evoked TRPM8-mediated Ca2+ entry (TRPM8; compound at 3 nM against maximal (100 μM) menthol): significantly (P<0.01) reduce TRPM8-mediated Ca^2+ entry triggered by menthol
effect on icilin-induced Ca2+ influx at higher concentrations (TRPM8; higher concentrations of the dose-response curve): nearly abolishes the Ca^2+ influx
lowest concentration still causing significant reduction in icilin-evoked TRPM8-mediated Ca2+ entry (TRPM8; icilin 500 nM): 3 nM
IC50 (TRPM8; inhibition of icilin (500 nM)-evoked Ca2+ entry, HEK-293 cells stably expressing hTRPM8, mean ± SEM, three independent experiments): 2.4 ± 1 nM
IC50 (TRPM8): ≤ 10 nM
inhibition at 0.003 µM (human TRPA1; [4]): -6 ± 5%
inhibition at 0.03 µM (human TRPA1; [4]): -3 ± 2%
effect on hTRPA1-mediated responses (intrinsic and antagonist activity) (human TRPA1; [5]): do not affect
selectivity for TRPM8 vs. TRPA1 (human TRPA1; from FLIPR single-point assays): 13 fold
hTRPA1 % Activation (n = 3-5) (human TRPA1; tested at 3 nM): −0.8 ± 0.4%
hTRPA1 % Activation (n = 3-5) (human TRPA1; tested at 30 nM): 0.1 ± 1.2%
time after administration at which attenuated cold allodynia is evident [2, 6]: 15 min
time after administration of maximum inhibition of cold allodynia [2, 6]: 30 min
effect on OXP effects at 60 minutes ([2]; 60 minutes after administration): significantly suppresses OXP effects
effect on oxaliplatin-induced cold allodynia ([2]; C57/BL6 mice): able to attenuate oxaliplatin-induced cold allodynia in vivo
inhibition of WDS at the highest dose compared with gabapentin ([3]; 50 mg/kg s.c., gabapentin 25 mg/kg s.c.): efficacy comparable to that observed with a standard analgesic dose of gabapentin
effect on icilin-induced wet-dog shakes ([3]; 1, 30 and 50 mg/kg s.c. 30 minutes before icilin (10 mg/kg i.p.)): marked, dose-dependent antinociceptive behavior
inhibition at 0.003 µM (human TRPV1; [7]): -9 ± 2%
inhibition at 0.03 µM (human TRPV1; [7]): -0.6 ± 5%
effect on hTRPV1-mediated responses (intrinsic and antagonist activity) (human TRPV1; [5]): do not affect
selectivity for TRPM8 vs. TRPV1 (human TRPV1; from FLIPR single-point assays): 13 fold
hTRPV1 % Activation (n = 3) (human TRPV1; tested at 3 nM): 1 ± 1%
hTRPV1 % Activation (n = 3) (human TRPV1; tested at 30 nM): 1 ± 2%
